Patent publication US20230255202A1, “ANTIMICROBIAL COMPOSITION” (The Procter & Gamble Company, priority 2022, published 2023)

What was measured:
Gram Negative = test: Surface Antimicrobial Kill Testing Method, activity normalized to triclosan internal standard; assay type: cell-based; settings: for Referenced Microbial Activity: Table 15; for Referenced Microbial Activity / Negative Referenced Microbial Activity / Gram Negative Referenced Microbial Activity: 0.5 wt % compound; for Referenced Microbial Activity / Negative Referenced Microbial Activity: 0.1M Acetic acid buffer pH 4.5; for Negative Referenced Microbial Activity: Table 16; for antimicrobial benefit (in words): Table 16 nonionic formulation: DEGBE, EcoSurf EH9; for Gram Negative Referenced Microbial Activity: 5 wt % DPGME; for antimicrobial efficacy (in words): Table 17
Protocol: Inoculum is prepared by streaking microorganism onto a Tryptic Soy Agar (TSA) plate and incubating for 24 h at 33° C. Plated bacteria is resuspended in saline until the transmittance percentage falls within the accepted range for ˜10^8 cfu/mL. For K. pneumonia (Kp) and P. aeruginosa (Pa), this is 31.00-33.00% T. For S. aureus (Sa) this is 23.00-25.00% T. A 10× concentration is made by spinning down the prepared inoculum, removing the supernatant saline from the bacterial pellet, then resuspending the pellet in 1/10 of the original volume of saline. The final inoculum is prepared with 5% of “soil” in the form of Fetal Bovine Serum (FBS).
A 18×18 mm sterile glass coverslip is placed into an appropriate container (e.g. petri dish). 20 μL of prepared inoculum is added to the glass coverslip. Inoculum is then air-dried for 30 minutes in a 36° C. incubator. After drying, 40 μL of test sample is added on top of the dried inoculum. This is incubated at room temperature for the desired contact time. 5 mL of neutralizing media (Modified Letheen Broth+Tween+Lecithin (MLBTL)) is added to the coverslip and shaken on an orbital shaker for 5 minutes to ensure proper neutralization and extraction. Viability is then assessed of the neutralized and extracted sample by traditional/alternative microbiological techniques.
The normalized antimicrobial activity reported in the performance examples below was generated from detection time data obtained as described in the Surface Antimicrobial Kill Test Method. To account for day-to-day variability an internal standard was tested with each series. The internal standard was a composition of 0.25 wt % Triclosan, Sigma Aldrich (St. Louis, Mo., USA; CAS #3380-34-5, 97.0-103.0% (active substance, GC)), 50 wt % DMSO, and 49.75 wt % H2O, with a final solution pH of 7.7. Normalized activity is reported following the equation 1 below.
Normalized Activity=(αΔDT−βΔDT)/(γΔDT−βΔDT) equation 1.
where, αΔDT is the average detection time of the antimicrobial compound, and γΔDT is the average detection time of the reference triclosan internal standard, and βΔDT is the average detection time of the background unperturbed bacteria.
Modified amino acids of the present disclosure were tested as aqueous solutions in the Surface Antimicrobial Kill Testing Method above. To prepare test solutions modified amino acids were first dissolved in the appropriate solvent. Second the selected surfactant is added to the mixture. After vortex (1 min, Vortex-2 Genie, vortex speed 8) mixing, the samples were then diluted with […] of reverse osmosis water (RO water, Millipore Direct-Q™, pH 6). The aqueous solution was then vortexed (1 min, Vortex-2 Genie, vortex speed 8), to which the second ½ portion of water is added. The pH of the solution was then adjusted to the target pH using either 1N HCl, Glacial Acetic Acid, or 1N NaOH. The final solution was then vortexed (1 min, Vortex-2 Genie, vortex speed 8). An example batch sheet is provided below in Table 1.
In Performance Examples 1-4 below, formulations comprising solvent, surfactant, and antimicrobial agents according to the present disclosure (e.g., based on modified amino acid esters), are evaluated via microbial surface kill tests according to the Surface Antimicrobial Kill Testing Method provided above. After treatment, microbial growth is referenced and reported to a triclosan sample and unaltered microbes according to the Normalization of Antimicrobial Activity provided above.

[1] = Stability of the isolated modified amino acid ester by 1H NMR; assay type: physicochemical; settings: isolated solid or fluid
[2] = DEGBE (5 wt %), EcoSurf EH9 1 wt %

Structure (SMILES): CCOC(=O)C(N)C(C)C (stereo not shown) [Comparative Example C1, reference compound]
- Referenced Microbial Activity (Gram Negative; [2]): 0.5

Structure (SMILES): CCOC(=O)[C@@H](N)Cc1ccccc1 [Comparative Example C2, phenylalanine ethyl ester, reference compound]
- Negative Referenced Microbial Activity (Gram Negative; [2]): 0.4
- antimicrobial benefit (in words) (Gram Negative): little antimicrobial benefit

Structure (SMILES): CCCCCCOC(=O)[C@@H](N)C(C)C [Synthetic Example 3]
- Referenced Microbial Activity (Gram Negative; [2]): 2.8
- stability by 1H NMR [1]: stable for several months

Structure (SMILES): CCCCCCCCOC(=O)[C@@H](N)C(C)C [Synthetic Example 4]
- Gram Negative Referenced Microbial Activity (Gram Negative; CTAC 1 wt %, pH 4.5): 3.5
- Gram Negative Referenced Microbial Activity (Gram Negative; Ecosurf EH6 1 wt %, pH 4.5): 3.5
- Gram Negative Referenced Microbial Activity (Gram Negative; Ecosurf EH6 1 wt %, pH 8.5): 0.7
- Gram Negative Referenced Microbial Activity (Gram Negative; Miranol Ultra 32 1 wt %, pH 4.5): 3.5
- Gram Negative Referenced Microbial Activity (Gram Negative; Plantaren 2000 1 wt %, pH 4.5): 3.5
- Gram Negative Referenced Microbial Activity (Gram Negative; SLS (29%) 1 wt %, pH 4.5): 0.4
- Gram Negative Referenced Microbial Activity (Gram Negative; SLS (29%) 1 wt %, pH 8.5): 0.1
- Gram Negative Referenced Microbial Activity (Gram Negative; Surfonic L 24-9 1 wt %, pH 2): 2.5
- Gram Negative Referenced Microbial Activity (Gram Negative; Surfonic L 24-9 1 wt %, pH 4.5): 3.5
- Gram Negative Referenced Microbial Activity (Gram Negative; Surfonic L24-9 1 wt %, pH 7): 3.5
- Gram Negative Referenced Microbial Activity (Gram Negative; Surfonic L24-9 1 wt %, pH 8.5): 0.2
- Gram Negative Referenced Microbial Activity (Gram Negative; Tween 80 1 wt %, pH 4.5): 3.5
- Gram Negative Referenced Microbial Activity (Gram Negative; no surfactant, pH 4.5, solution heated to 50 C. prior to testing): 1.6
- Referenced Microbial Activity (Gram Negative; DEGBE (5 wt %), EcoSurf EH6 1 wt %): 3.7
- Referenced Microbial Activity (Gram Negative; [2]): 1.6
- antimicrobial activity (in words) (Gram Negative; Table 15 experiment, modified valine amino acids): highest activity
- antimicrobial efficacy (in words) (Gram Negative; from pH 2 to about pH 7): improved antimicrobial efficacy
- antimicrobial efficacy (in words) (Gram Negative; pH range greater than 7): did not provide a benefit
- stability by 1H NMR [1]: stable for several months

Structure (SMILES): CCCCCCCCCCCCCCCCOC(=O)[C@@H](N)C(C)C [Synthetic Example 6]
- Referenced Microbial Activity (Gram Negative; [2]): 0.6
- stability by 1H NMR [1]: stable for several months

Structure (SMILES): CCCCCCCCCCCCCCCCCCOC(=O)[C@@H](N)C(C)C [Synthetic Example 7]
- Referenced Microbial Activity (Gram Negative; [2]): 0.9
- Referenced Microbial Activity (Gram Negative; DMSO (50 wt %), EcoSurf EH6 1 wt %): 0.6
- stability by 1H NMR [1]: stable for several months

Structure (SMILES): N[C@@H](Cc1ccccc1)C(=O)OCc1ccccc1 [Synthetic Example 8]
- Negative Referenced Microbial Activity (Gram Negative; [2]): 4.6
- stability by 1H NMR [1]: stable for several months

Structure (SMILES): CCCCCCCCCCCCOC(=O)[C@@H](N)Cc1ccccc1 [Synthetic Example 10]
- Negative Referenced Microbial Activity (Gram Negative; [2]): 0.1
- antimicrobial benefit (in words) (Gram Negative): little surface activity
- stability by 1H NMR [1]: stable for several months
